Where a name gives a salt, the structure may show the parent alone. Read-outs that look alike come from different tables or passages of the source.
Experiments:
[1] = target: S. aureus CrtM (dehydrosqualene synthase) (Staphylococcus aureus, UniProt A9JQL9); assay: CrtM enzyme inhibition assay; settings: for as active as 1 in CrtM inhibition: fold more active
[2] = system: staphyloxanthin (STX) biosynthesis in S. aureus; assay: Staphyloxanthin biosynthesis inhibition assay; type: cell-based, Staphylococcus aureus
Description: The question next arises: how potent are these compounds in inhibiting STX biosynthesis in S. aureus? We thus treated S. aureus bacteria with serially diluted compounds at 37° C. for 3 days, after which the STX pigment was extracted with methanol. Optical densities were measured at 450 nm and IC50 values for inhibition of pigment formation for each compound were calculated using a standard dose-response curve. The rank ordered IC50 values of the 38 compounds investigated are shown in Table 7 and dose-response curves of representative compounds are shown in FIG. 2.
The S. aureus strain used was the WT clinical isolate (Pig1) (4). S. aureus was cultured in THB (1 mL) in the presence of inhibitor compounds for 72 h, in duplicate. Cells were then centrifuged and washed twice with PBS. STX was extracted with MeOH and the O.D. was determined at 450 nm using a Perkin Elmer MBA 2000 (Norwalk, Conn.) spectrophotometer.

[3] = read-out: CrtM IC50 values, Table 4
[4] = read-out: CrtM enzyme experimental activity IC50, Table 5
[5] = Table 7, S. aureus, 37° C., 3 days, read-out: Staphyloxanthin IC50
[6] = Staphylococcus aureus, 72 h, read-out: Staphyloxanthin IC50
[7] = Staphylococcus aureus, read-out: IC50 (STX)

Chain of S. aureus CrtM (dehydrosqualene synthase) (A9JQL9 whole entry): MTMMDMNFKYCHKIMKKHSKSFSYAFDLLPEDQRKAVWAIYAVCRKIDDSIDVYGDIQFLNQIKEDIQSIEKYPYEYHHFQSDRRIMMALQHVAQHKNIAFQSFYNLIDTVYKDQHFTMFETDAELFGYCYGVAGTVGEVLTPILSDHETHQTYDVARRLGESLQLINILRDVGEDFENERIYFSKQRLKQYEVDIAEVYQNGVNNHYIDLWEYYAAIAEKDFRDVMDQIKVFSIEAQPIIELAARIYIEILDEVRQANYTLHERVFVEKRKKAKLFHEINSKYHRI

Compound	CrtM enzyme experimental activity pIC50 ([1]; Table 5)	IC50 [1, 3]	IC50 [1, 4]	IC50 [2, 5]	IC50 [2, 6]	further results
1-Phosphono-4-[3-(2-fluorophenoxy)phenyl]butylsulfonic acid tripotassium salt [Compound 21]	5.16	6.9 µM	6.9 µM	510 nM	–	–
1-Phosphono-4-[3-(2-trifluoromethylphenoxy)phenyl]butylsulfonic acid tripotassium salt [Compound 23]	4.27	53.7 µM	53.7 µM	460 nM	–	–
1-Phosphono-4-[3-(3,4-dichlorophenoxy)phenyl]butylsulfonic acid tripotassium salt [Compound 31]	5.65	2.2 µM	2.2 µM	11 nM	–	–
1-Phosphono-4-[3-(3,4-difluorophenoxy)phenyl]butylsulfonic acid tripotassium salt [Compound 30]	5.76	1.7 µM	1.7 µM	110 nM	–	–
1-Phosphono-4-[3-(3,5-dichlorophenoxy)phenyl]butylsulfonic acid tripotassium salt [Compound 34]	5.2	6.3 µM	6.3 µM	51 nM	–	–
1-Phosphono-4-[3-(3,5-difluorophenoxy)phenyl]butylsulfonic acid tripotassium salt [Compound 33]	5.34	4.6 µM	4.6 µM	15 nM	–	–
1-Phosphono-4-[3-(3-fluorophenoxy)phenyl]butylsulfonic acid tripotassium salt [Compound 20]	5.66	2.2 µM	2.2 µM	220 nM	–	–
1-Phosphono-4-[3-(3-trifluoromethylphenoxy)phenyl]butylsulfonic acid tripotassium salt [Compound 22]	5.01	9.8 µM	9.8 µM	74 nM	–	–
1-Phosphono-4-[3-(4-chlorophenoxy)phenyl]butylsulfonic acid tripotassium salt [Compound 24]	5.6	2.5 µM	2.5 µM	39 nM	–	–
1-Phosphono-4-[3-(4-fluorophenoxy)-6-fluoro-phenyl]butylsulfonic acid tripotassium salt [Compound 35]	5.68	2.1 µM	2.1 µM	59 nM	–	–
1-Phosphono-4-[3-(4-fluorophenoxy)-6-methoxy-phenyl]butylsulfonic acid tripotassium salt [Compound 36]	–	–	–	13800 nM	–	–
1-Phosphono-4-[3-(4-hydroxyphenoxy)phenyl]butylsulfonic acid tripotassium salt [Compound 27]	–	–	–	6800 nM	–	–
1-Phosphono-4-[3-(4-phenoxyphenoxy)phenyl]butylsulfonic acid tripotassium salt [Compound 28]	–	–	–	100 nM	–	–
1-Phosphono-4-[3-(benzofuran-5-yloxy)phenyl]butylsulfonic acid tripotassium salt [Compound 32]	5.67	2.1 µM	2.1 µM	15 nM	–	–
1-Phosphono-4-[3-[4-(furan-2-yl)phenoxy]phenyl]butylsulfonic acid tripotassium salt [Compound 29]	4.58	26.3 µM	26.3 µM	1100 nM	–	–
O=P(O)(O)C(CCCc1ccc(-c2ccccc2)cc1)P(=O)(O)O [Compound 2, 4-(4-Biphenyl)butyldiphosphonic acid tetrapotassium salt]	–	–	–	–	2200 nM	IC50 [1]: 0.48 µM; Ki [1]: ~1 nM; IC50 ([1]; read-out: IC50 against CrtM): 0.5 µM
CP(=O)([O-])C(CCCc1ccc(-c2ccccc2)cc1)P(=O)([O-])[O-].[K+].[K+].[K+] (centres unmarked) [Compound 4, dipotassium salt]	–	–	–	–	1400 nM	–
O=P([O-])([O-])C(CCCc1cccc(Oc2ccc(F)cc2)c1)S(=O)(=O)[O-].[K+].[K+].[K+] (centres unmarked) [Compound 5, 1-Phosphono-4-[3-(4-fluorophenoxy)phenyl]butylsulfonic acid tripotassium salt]	–	–	–	–	52 nM	IC50 [1]: 2.34 µM; Ki [1]: ~5 nM; as active as 1 in CrtM inhibition ([1]; versus 1): ~4 ×; IC50 ([1]; read-out: IC50 against CrtM): 2.3 µM

Compound	CrtM enzyme experimental activity pIC50 ([1]; Table 5)	IC50 [1, 3]	IC50 [1, 4]	IC50 [2, 5]	IC50 [2, 6]	further results
CCCc1ccc(Oc2cccc(CCCC(P(=O)([O-])[O-])S(=O)(=O)[O-])c2)cc1.[K+].[K+].[K+] (centres unmarked) [Compound 6, 1-Phosphono-4-[3-(4-propylphenoxy)phenyl]butylsulfonic acid tripotassium salt]	–	–	–	–	93 nM	Ki [1]: ~5 nM; as active as 1 in CrtM inhibition ([1]; versus 1): ~4 ×; IC50 ([1]; read-out: IC50 (CrtM), Table 1): 2.2 µM; IC50 [2, 7]: 100 nM; IC50 ([2]; Staphylococcus aureus, read-out: IC50 for STX biosynthesis): 93 nM
O=P(O)(O)C(CCCc1cccc(Oc2ccc(C(F)(F)F)cc2)c1)S(=O)(=O)O (centres unmarked) [Compound 7, 1-Phosphono-4-[3-(4-trifluoromethylphenoxy)phenyl]butylsulfonic acid tripotassium salt]	–	7.2 µM	–	–	40 nM	–
O=P([O-])([O-])C(CCCc1cccc(Oc2ccccc2Cc2ccccc2)c1)S(=O)(=O)[O-].[K+].[K+].[K+] (centres unmarked) [Compound 8, 1-Phosphono-4-[3-(2-benzylphenoxy)phenyl]butylsulfonic acid tripotassium salt]	4.43	–	–	–	19 nM	less active than 1 in CrtM inhibition ([1]; fold, versus 1): ~5 ×
O=P([O-])([O-])C(CCCc1ccc(-c2ccccc2)cc1)S(=O)(=O)[O-].[K+].[K+].[K+] (centres unmarked) [Compound 9, 1-Phosphono-4-(4-biphenyl)butylsulfonic acid tripotassium salt]	–	–	–	–	350 nM	–
O=P(O)(O)C(CCCc1ccc(-c2ccc(F)cc2F)cc1)S(=O)(=O)O (centres unmarked) [Compound 10, 1-Phosphono-4-[4-(2,4-difluorophenyl)phenyl]butylsulfonic acid tripotassium salt]	–	–	9.1 µM	–	180 nM	–
Cc1ccc(-c2ccc(CCCC(P(=O)(O)O)S(=O)(=O)O)cc2)cc1 (centres unmarked) [Compound 11, 1-Phosphono-4-[4-(4-methylphenyl)phenyl]butylsulfonic acid tripotassium salt]	–	–	24.5 µM	–	180 nM	–
CCCCc1ccc(-c2ccc(CCCC(P(=O)([O-])[O-])S(=O)(=O)[O-])cc2)cc1.[K+].[K+].[K+] (centres unmarked) [Compound 12, 1-Phosphono-4-[4-(4-butylphenyl)phenyl]butylsulfonic acid tripotassium salt]	–	–	–	–	160 nM	–
CCCOc1cccc(-c2ccc(CCCC(P(=O)(O)O)S(=O)(=O)O)cc2)c1 (centres unmarked) [Compound 13, 1-Phosphono-4-[4-(3-propoxyphenyl)phenyl]butylsulfonic acid tripotassium salt]	–	–	123 µM	–	490 nM	–
O=P(O)(O)C(CCCc1cccc(Nc2ccccc2)c1)S(=O)(=O)O (centres unmarked) [Compound 16, 1-Phosphono-4-(3-phenylaminophenyl)butylsulfonic acid tripotassium salt]	–	–	–	–	500 nM	IC50 ([1]; read-out: IC50 against CrtM): 43.7 µM
O=P(O)(O)C(CCCc1cccc(Cc2ccccc2)c1)S(=O)(=O)O (centres unmarked) [Compound 17, 1-Phosphono-4-(3-benzylphenyl)butylsulfonic acid tripotassium salt]	–	–	20.4 µM	–	170 nM	–
O=P([O-])([O-])C(CCCc1ccc(Oc2ccccc2)cc1)S(=O)(=O)[O-].[K+].[K+].[K+] (centres unmarked) [Compound 18, 1-Phosphono-4-(4-phenoxyphenyl)butylsulfonic acid tripotassium salt]	–	–	–	–	190 nM	–
CCn1c2ccccc2c2cc(CCCC(P(=O)(O)O)S(=O)(=O)O)ccc21 (centres unmarked) [Compound 19, 1-Phosphono-4-(9-ethylcarbazole-3-yl)butylsulfonic acid tripotassium salt]	–	–	–	–	263000 nM	–
CC(C)(C)c1ccc(Oc2cccc(CCCC(P(=O)(O)O)S(=O)(=O)O)c2)cc1 (centres unmarked) [Compound 25, 1-Phosphono-4-[3-(4-tert-butylphenoxy)phenyl]butylsulfonic acid tripotassium salt]	–	–	–	–	21 nM	IC50 ([1]; read-out: IC50 (CrtM), Table 1): 10.5 µM; IC50 [2, 7]: 21 nM
O=P(O)(O)C(CCCc1cccc(Oc2ccc(Cc3ccccc3)cc2)c1)S(=O)(=O)O (centres unmarked) [Compound 26, 1-Phosphono-4-[3-(4-benzylphenoxy)phenyl]butylsulfonic acid tripotassium salt]	–	–	–	–	49 nM	IC50 ([1]; read-out: IC50 (CrtM), Table 1): 13.5 µM; IC50 [2, 7]: 49 nM
O=P(O)(O)[C@@H](CCCc1cccc(Oc2ccccc2)c1)S(=O)(=O)O [Compound (R)-1, (1R)-1-Phosphono-4-(3-phenoxyphenyl)butylsulfonic acid tripotassium salt]	–	–	–	–	310 nM	–
O=P([O-])([O-])[C@H](CCCc1cccc(Oc2ccccc2)c1)S(=O)(=O)[O-].[K+].[K+].[K+] [Compound (S)-1, (1S)-1-Phosphono-4-(3-phenoxyphenyl)butylsulfonic acid tripotassium salt]	–	–	–	–	50 nM	more active than its (R)-enantiomer in CrtM inhibition ([1]; fold, versus (R)-1): ~30 ×; IC50 ([1]; read-out: IC50 against CrtM): 1.4 µM
O=C(CP(=O)(O)O)NCCCc1ccc(-c2ccccc2)cc1 [compound 846]	–	–	–	–	–	IC50 [1]: 165 µM
O=C(O)CC(=O)NCCCc1cccc(Oc2ccccc2)c1 [compound 888]	–	–	–	–	–	IC50 [1]: > 1500 µM
